The text below walks through data of ChEMBL document CHEMBL3046239, “Lethal and Antifeedant Substance from Rhizome of Alpinia galanga SW. (Zingiberaceae)” (1998).

What all share (assay type): functional
Assay [1] concerns Plutella xylostella. In words: Antifeedant effect in Plutella xylostella (diamondback moth) in compound treated fresh cabbage leaves assessed as feeding reduction at 66.4 ug/cm'2 by no-choice leaf disk method.
In assay [2] the test system is Plutella xylostella. In words: Antifeedant effect in Plutella xylostella (diamondback moth) in compound treated fresh cabbage leaves assessed as feeding reduction at 106.2 ug/cm'2 by no-choice leaf disk method.
Assay [3] deals with Callosobruchus chinensis. Briefly: Lethal effect on Callosobruchus chinensis assessed as mortality at 8 ug/insect measured 24 hr after treatment by topical application method.
The subject of assay [4] is Plutella xylostella. Briefly: Lethal effect on Plutella xylostella (diamondback moth) in fresh cabbage leaves assessed as mortality measured per insect after 48 hr treatment by topical application method.
Assay [5] has as its system Callosobruchus chinensis. In words: Lethal effect on Callosobruchus chinensis assessed as mortality measured per insect after 24 hr treatment by topical application method.
For assay [6], the system named is Plutella xylostella. Briefly: Lethal effect on Plutella xylostella (diamondback moth) in fresh cabbage leaves assessed as mortality at 8 to 10 ug/insect measured 48 hr after treatment by topical application method.
The test system of assay [7] is Plutella xylostella. Briefly: Lethal effect on Plutella xylostella (diamondback moth) in fresh cabbage leaves assessed as mortality at 10 ug/insect measured 24 hr after treatment by topical application method.

One may read the mortality as the percentage killed. `C=C[C@H](OC(C)=O)c1ccc(OC(C)=O)cc1` [1'-ACETOXYCHAVICOL ACETATE]: the results for the AFI in the assay with Plutella xylostella [1] and in the assay on Plutella xylostella [2] were 88.5% and 98.8%, respectively. The mortality is 95% in the assay with Callosobruchus chinensis [3], 100% in the assay on Plutella xylostella [6] and 83.3% in the assay with Plutella xylostella [7]. The LD50 was found to be 4.5 µg with Plutella xylostella [4] and 3 µg in the assay with Callosobruchus chinensis [5].
